Assay results as given in patent US10668064B2, “Polycyclic-carbamoylpyridone compounds and their pharmaceutical use” (Gilead Sciences, Inc., priority 2013, dated 2020).

Experiments:
HIV-IIIb = experiment: Antiviral assay in MT4 cells; type: cell-based; conditions: Human immunodeficiency virus 1, 120 h; MT4 cells infected with HIV-IIIb, 5 days incubation, CellTiter-Glo; average over time; read-out: EC50 nM in MT-4
Method: (§1) For the antiviral assay utilizing MT4 cells, 0.4 μL of 189× test concentration of 3-fold serially diluted compound in DMSO was added to 40 μL of cell growth medium (RPMI 1640, 10% FBS, 1% penicillin/streptomycin, 1% L-Glutamine, 1% HEPES) in each well of 384-well assay plates (10 concentrations) in quadruplicate. 1 mL aliquots of 2×10^6 MT4 cells are pre-infected for 1 and 3 hours respectively at 37° C. with 25 μL (MT4) or of either cell growth medium (mock-infected) or a fresh 1:250 dilution of an HIV-IIIb concentrated ABI stock (0.004 m.o.i. for MT4 cells). Infected and uninfected cells are diluted in cell growth medium and 35 μL of 2000 (for MT4) cells is added to each well of the assay plates. Assay plates were then incubated in a 37° C. incubator. After 5 days of incubation, 25 μL of 2× concentrated CellTiter-Glo™ Reagent (catalog # G7573, Promega Biosciences, Inc., Madison, Wis.) was added to each well of the assay plate. Cell lysis was carried out by incubating at room temperature for 2-3 minutes, and then chemiluminescence was read using the Envision reader (PerkinElmer).

in vitro = type: cell-based; conditions: human
Method: as §1

Structure (SMILES) | EC50 (HIV-IIIb) [nM] | CC50 at 5 days (in vitro) [µM]
O=C(N[C@@H](c1ccc(F)cc1F)C(F)(F)F)c1cn2c(c(O)c1=O)C(=O)N1[C@@H]3C[C@H](O[C@@H]1C2)[C@H]1C[C@H]13 [Compound 1, (1aS,2S,3aR,12R,12aR)-N-((S)-1-(2,4-difluorophenyl)-2,2,2-trifluoroethyl)-9-hydroxy-8,10-dioxo-1a,2,3a,4,8,10,12,12a-octahydro-1H-2,12-methanocyclopropa[e]pyrido[1′,2′:4,5]pyrazino[2,1-b][1,3]oxazepine-7-carboxamide] | 9.6 | 14.1
O=C(N[C@@H](c1ccc(F)cc1F)C(F)(F)F)c1cn2c(c(O)c1=O)C(=O)N1[C@H](C2)O[C@@H]2C[C@H]1[C@H]1C[C@H]12 [Compound 2, (1aR,2R,3aS,12S,12aS)-N-((S)-1-(2,4-difluorophenyl)-2,2,2-trifluoroethyl)-9-hydroxy-8,10-dioxo-1a,2,3a,4,8,10,12,12a-octahydro-1H-2,12-methanocyclopropa[e]pyrido[1′,2′:4,5]pyrazino[2,1-b][1,3]oxazepine-7-carboxamide] | 10.7 | 7.8
C[C@@H](NC(=O)c1cn2c(c(O)c1=O)C(=O)N1[C@@H]3C[C@H](O[C@@H]1C2)[C@H]1C[C@H]13)c1ccc(F)cc1F [Compound 3, (1aS,2S,3aR,12R,12aR)-N-((R)-1-(2,4-difluorophenyl)ethyl)-9-hydroxy-8,10-dioxo-1a,2,3a,4,8,10,12,12a-octahydro-1H-2,12-methanocyclopropa[e]pyrido[1′,2′:4,5]pyrazino[2,1-b][1,3]oxazepine-7-carboxamide] | 9.9 | 4.1
C[C@@H](NC(=O)c1cn2c(c(O)c1=O)C(=O)N1C3CC(O[C@H]1C2)[C@@H]1C[C@H]31)c1ccc(F)cc1F (some centres unmarked) [Compound 4] | 8.4 | 12.8
O=C(NCc1ccc(F)cc1F)c1cn2c(c(O)c1=O)C(=O)N1C(C2)O[C@@H]2C[C@H]1[C@@H]1[C@H]2C1(F)F (stereo partly drawn) [Compound 5, (1aR,2R,12S,12a5)-N-(2,4-difluorobenzyl)-1,1-difluoro-9-hydroxy-8,10-dioxo-1a,2,3a,4,8,10,12,12a-octahydro-1H-2,12-methanocyclopropa[e]pyrido[1′,2′:4,5]pyrazino[2,1-b][1,3]oxazepine-7-carboxamide] | 1.6 | 50.5
O=C(NCc1ccc(F)cc1F)c1cn2c(c(O)c1=O)C(=O)N1C(C2)O[C@@H]2C[C@H]1[C@H]1C[C@H]12 (stereo partly drawn) [Compound 6, (1aR,2R,3aS,12S,12a5)-N-(2,4-difluorobenzyl)-9-hydroxy-8,10-dioxo-1a,2,3a,4,8,10,12,12a-octahydro-1H-2,12-methanocyclopropa[e]pyrido[1′,2′:4,5]pyrazino[2,1-b][1,3]oxazepine-7-carboxamide] | 1.5 | 14.1
O=C(NCc1ccc(F)cc1F)c1cn2c(c(O)c1=O)C(=O)N1[C@@H]3C[C@H](O[C@@H]1C2)[C@H]1C[C@H]13 [Compound 7, (1aS,2S,3aR,12R,12aR)-N-(2,4-difluorobenzyl)-9-hydroxy-8,10-dioxo-1a,2,3a,4,8,10,12,12a-octahydro-1H-2,12-methanocyclopropa[e]pyrido[1′,2′:4,5]pyrazino[2,1-b][1,3]oxazepine-7-carboxamide] | 2.7 | 4.83
O=C(NCc1ccc(F)cc1F)c1cn2c(c(O)c1=O)C(=O)N1[C@H](C2)[C@@H]2C[C@H]1[C@H]1C[C@@H]21 [Compound 8, (1aS,2S,10aS,11R,11aR)-N-(2,4-difluorobenzyl)-5-hydroxy-4,6-dioxo-1a,2,4,6,10,10a,11,11a-octahydro-1H-2,11-methanocyclopropa[4,5]pyrido[1,2-a]pyrido[1,2-d]pyrazine-7-carboxamide] | 1.4 | 8.84
O=C(NCc1c(F)cc(F)cc1F)c1cn2c(c(O)c1=O)C(=O)N1[C@H](C2)[C@@H]2C[C@H]1[C@H]1C[C@@H]21 [Compound 9, (1aS,2S,10aS,11R,11aR)-5-hydroxy-4,6-dioxo-N-(2,4,6-trifluorobenzyl)-1a,2,4,6,10,10a,11,11a-octahydro-1H-2,11-methanocyclopropa[4,5]pyrido[1,2-a]pyrido[1,2-d]pyrazine-7-carboxamide] | 1.4 | 10.7
O=C(NCc1c(F)cc(F)cc1F)c1cn2c(c(O)c1=O)C(=O)N1[C@@H]3C[C@H](O[C@@H]1C2)[C@H]1C[C@H]13 [Compound 10, (1aS,2S,3aR,12R,12aR)-9-hydroxy-8,10-dioxo-N-(2,4,6-trifluorobenzyl)-1a,2,3a,4,8,10,12,12a-octahydro-1H-2,12-methanocyclopropa[e]pyrido[1′,2′:4,5]pyrazino[2,1-b][1,3]oxazepine-7-carboxamide] | 1.7 | 7.59
O=C(NCc1c(F)cc(F)cc1F)c1cn2c(c(O)c1=O)C(=O)N1C(C2)O[C@@H]2C[C@H]1[C@H]1C[C@H]12 (stereo partly drawn) [Compound 11, (1aR,2R,10aR,11S,11a5)-5-hydroxy-4,6-dioxo-N-(2,4,6-trifluorobenzyl)-1a,2,4,6,10,10a,11,11a-octahydro-1H-2,11-methanocyclopropa[4,5]pyrido[1,2-a]pyrido[1,2-d]pyrazine-7-carboxamide] | 1.5 | 11
O=C(NCc1c(F)cc(F)cc1F)c1cn2c(c(O)c1=O)C(=O)N1[C@@H]3C[C@@H]([C@H]4C[C@H]43)[C@@H]1C2 [Compound 12, (1aR,2R,10aR,11S,11aS)-5-hydroxy-4,6-dioxo-N-(2,4,6-trifluorobenzyl)-1a,2,4,6,10,10a,11,11a-octahydro-1H-2,11-methanocyclopropa[4,5]pyrido[1,2-a]pyrido[1,2-d]pyrazine-7-carboxamide] | 2.9 | 22.8
O=C(NCc1cc(F)c(F)cc1F)c1cn2c(c(O)c1=O)C(=O)N1C3CC([C@@H]4C[C@H]34)[C@@H]1C2 (stereo partly drawn) [Compound 13, (1aR,2R,10aR,11S,11a5)-5-hydroxy-4,6-dioxo-N-(2,4,5-trifluorobenzyl)-1a,2,4,6,10,10a,11,11a-octahydro-1H-2,11-methanocyclopropa[4,5]pyrido[1,2-a]pyrido[1,2-d]pyrazine-7-carboxamide] | 2.3 | 7.05
